Values of other authors as cited in patent US20020177547A1, “Pharmaceutical compositions for treating or preventing cancer” (priority 2001, published 2002).

Assays:
[1] = test system: hgp100 TILs
[2] = test system: peripheral blood lymphocytes (PBL) of melanoma patients; details: repeated in vitro stimulation of PBL

| Sequence | recognition by TILs [1] | induction of melanoma-reactive CTLs [2] |
| --- | --- | --- |
| ITDQVPFSV [peptide 2] | immunodominant |  |
| KTWGQYWQV [peptide 1] | immunodominant |  |
| VLYRYGSFSV (listed as Homo sapiens) [Peptide 3] |  | able to induce melanoma-reactive CTLs |
